# Experimental data published in patent US20240425453A1, “ISOINDOLINES AS PMS2 INHIBITORS” (NeoPhore Limited, priority 2021, published 2024).
# Structures can show the parent of a compound that is named as a salt.
# Biological target: recombinant N-terminal PMS2 (residues 1-365) (Homo sapiens (Human), UniProt P54278)
# Assay: Fluorescence polarisation assay for PMS2
# Type: binding
# Conditions: 10 nM N-terminal PMS2, 5 nM fluorescent probe compound; 30 min pre-incubation, read after 1 hour at room temperature
# Chain of recombinant N-terminal PMS2 (residues 1-365) (P54278 1-365): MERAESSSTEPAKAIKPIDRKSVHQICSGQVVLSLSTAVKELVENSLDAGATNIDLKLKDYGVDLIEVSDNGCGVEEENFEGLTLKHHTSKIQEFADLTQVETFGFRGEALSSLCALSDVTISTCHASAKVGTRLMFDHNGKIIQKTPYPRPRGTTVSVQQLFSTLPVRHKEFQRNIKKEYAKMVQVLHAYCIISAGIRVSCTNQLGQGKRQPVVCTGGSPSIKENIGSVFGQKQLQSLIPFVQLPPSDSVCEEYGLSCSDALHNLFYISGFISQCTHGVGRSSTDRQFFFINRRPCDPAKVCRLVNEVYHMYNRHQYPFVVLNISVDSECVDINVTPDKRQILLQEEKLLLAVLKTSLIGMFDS
row,Compound,IC50 [nM]
1,"C=CC(=O)Nc1cccc2c1CN(C(=O)c1c(O)cc(O)cc1OCc1ccccc1)C2 [Example 1, N-(2-(2-(Benzyloxy)-4,6-dihydroxybenzoyl)isoindolin-4-yl)acrylamide]",100 to 1000
2,"CN(C)C/C=C/C(=O)Nc1cccc2c1CN(C(=O)c1c(O)cc(O)cc1OCc1ccccc1)C2 [Example 2, (E)-N-(2-(2-(Benzyloxy)-4,6-dihydroxybenzoyl)isoindolin-4-yl)-4-(dimethylamino)but-2-enamide]",< 100
3,"C=C(F)C(=O)Nc1cccc2c1CN(C(=O)c1c(O)cc(O)cc1OCc1ccccc1)C2 [Example 3, N-(2-(2-(Benzyloxy)-4,6-dihydroxy-benzoyl)isoindolin-4-yl)-2-fluoroacrylamide]",> 1000
4,"C=CC(=O)Nc1cccc2c1CN(C(=O)c1c(O)cc(O)c(C)c1OCc1ccccc1)C2 [Example 4, N-(2-(2-(Benzyloxy)-4,6-dihydroxy-3-methylbenzoyl)isoindolin-4-yl)acrylamide]",< 100
5,"C=C(F)C(=O)Nc1cccc2c1CN(C(=O)c1c(O)cc(O)c(C)c1OCc1ccccc1)C2 [Example 5, N-(2-(2-(Benzyloxy)-4,6-dihydroxy-3-methylbenzoyl)isoindolin-4-yl)-2-fluoroacrylamide]",> 1000
6,"Cc1c(O)cc(O)c(C(=O)N2Cc3cccc(NC(=O)/C=C/CN(C)C)c3C2)c1OCc1ccccc1 [Example 6, (E)-N-(2-(2-(Benzyloxy)-4,6-dihydroxy-3-methylbenzoyl)isoindolin-4-yl)-4-(dimethylamino)but-2-enamide]",< 100
7,"C=CC(=O)Nc1cccc2c1CN(C(=O)c1c(O)cc(O)c(C)c1OCC1CCCCC1)C2 [Example 7, N-(2-(2-(Cyclohexylmethoxy)-4,6-dihydroxy-3-methylbenzoyl)isoindolin-4-yl) acrylamide]",< 100
8,"Cc1c(O)cc(O)c(C(=O)N2Cc3cccc(NC(=O)/C=C/CN(C)C)c3C2)c1OCC1CCCCC1 [Example 8, (E)-N-(2-(2-(cyclohexylmethoxy)-4,6-dihydroxy-3-methylbenzoyl)isoindolin-4-yl)-4-(dimethylamino)but-2-enamide]",< 100
9,"Cc1c(O)cc(O)c(C(=O)N2Cc3cccc(NC(=O)/C=C/CN4CCCC4)c3C2)c1OCC1CCCCC1 [Example 9, (E)-N-(2-(2-(Cyclohexylmethoxy)-4,6-dihydroxy-3-methylbenzoyl)isoindolin-4-yl)-4-(pyrrolidin-1-yl)but-2-enamide]",< 100
10,"Cc1c(O)cc(O)c(C(=O)N2Cc3cccc(NC(=O)/C=C/CN4CCOCC4)c3C2)c1OCC1CCCCC1 [Example 10, (E)-N-(2-(2-(cyclohexylmethoxy)-4,6-dihydroxy-3-methylbenzoyl)isoindolin-4-yl)-4-morpholinobut-2-enamide hydrochloride]",< 100
11,"CC#CC(=O)Nc1cccc2c1CN(C(=O)c1c(O)cc(O)c(C)c1OCC1CCCCC1)C2 [Example 12, N-(2-(2-(Cyclohexylmethoxy)-4,6-dihydroxy-3-methylbenzoyl)isoindolin-4-yl)but-2-ynamide]",100 to 1000
12,"C/C=C/C(=O)Nc1cccc2c1CN(C(=O)c1c(O)cc(O)c(C)c1OCC1CCCCC1)C2 [Example 13, (E)-N-(2-(2-(Cyclohexylmethoxy)-4,6-dihydroxy-3-methylbenzoyl)isoindolin-4-yl)but-2-enamide]",> 1000
13,"Cc1c(O)cc(O)c(C(=O)N2Cc3cccc(NC(=O)/C=C/CN(C)C)c3C2)c1OCC1CCCC1 [Example 14, (E)-N-[2-[2-(Cyclopentylmethoxy)-4,6-dihydroxy-3-methyl-benzoyl]isoindolin-4-yl]-4-(dimethylamino)but-2-enamide]",< 100
14,"C=CC(=O)Nc1ccc2c(c1)CN(C(=O)c1c(O)cc(O)c(C)c1OCC1CCCCC1)C2 [Example 16, N-[2-[2-(Cyclohexylmethoxy)-4,6-dihydroxy-3-methyl-benzoyl]isoindolin-5-yl]prop-2-enamide]",< 100
15,"C=CC(=O)Nc1cccc2c1CN(C(=O)c1c(O)cc(O)c(C)c1OCC1CCCCC1)CC2 [Example 17, N-[2-[2-(Cyclohexylmethoxy)-4,6-dihydroxy-3-methyl-benzoyl]-3,4-dihydro-1H-isoquinolin-8-yl]prop-2-enamide]",100 to 1000
16,"C=CC(=O)Nc1ccc2c(c1)CN(C(=O)c1c(O)cc(O)c(C)c1OCC1CCCCC1)CC2 [Example 18, N-[2-[2-(Cyclohexylmethoxy)-4,6-dihydroxy-3-methyl-benzoyl]-3,4-dihydro-1H-isoquinolin-7-yl]prop-2-enamide]",< 100
17,"Cc1c(O)cc(O)c(C(=O)N2Cc3ccc(NC(=O)/C=C/CN(C)C)cc3C2)c1OCC1CCCCC1 [Example 19, (E)-N-[2-[2-(Cyclohexylmethoxy)-4,6-dihydroxy-3-methyl-benzoyl]isoindolin-5-yl]-4-(dimethylamino)but-2-enamide]",100 to 1000

row,Compound,IC50 [nM]
1,"Cc1c(O)cc(O)c(C(=O)N2CCc3cccc(NC(=O)/C=C/CN(C)C)c3C2)c1OCC1CCCCC1 [Example 20, (E)-N-[2-[2-(Cyclohexylmethoxy)-4,6-dihydroxy-3-methyl-benzoyl]-3,4-dihydro-1H-isoquinolin-8-yl]-4-(dimethylamino)but-2-enamide]",100 to 1000
2,"Cc1c(O)cc(O)c(C(=O)N2CCc3ccc(NC(=O)/C=C/CN(C)C)cc3C2)c1OCC1CCCCC1 [Example 21, (E)-N-[2-[2-(Cyclohexylmethoxy)-4,6-dihydroxy-3-methyl-benzoyl]-3,4-dihydro-1H-isoquinolin-7-yl]-4-(dimethylamino)but-2-enamide]",< 100
3,"CCOc1c(C)c(O)cc(O)c1C(=O)N1Cc2cccc(NC(=O)/C=C/CN(C)C)c2C1 [Example 22, (E)-4-(Dimethylamino)-N-[2-(2-ethoxy-4,6-dihydroxy-3-methyl-benzoyl)isoindolin-4-yl]but-2-enamide]",< 100
4,"Cc1c(O)cc(O)c(C(=O)N2Cc3cccc(NC(=O)/C=C/CN(C)C)c3C2)c1OCC(F)(F)F [Example 23, (E)-N-[2-[4,6-Dihydroxy-3-methyl-2-(2,2,2-trifluoroethoxy)benzoyl]isoindolin-4-yl]-4-(dimethylamino)but-2-enamide]",< 100
5,"Cc1c(O)cc(O)c(C(=O)N2Cc3cccc(NC(=O)/C=C/CN(C)C)c3C2)c1OCC1CC1 [Example 24, (E)-N-[2-[2-(cyclopropylmethoxy)-4,6-dihydroxy-3-methyl-benzoyl]isoindolin-4-yl]-4-(dimethylamino)but-2-enamide]",< 100
6,"COc1c(C)c(O)cc(O)c1C(=O)N1Cc2cccc(N(C)C(=O)/C=C/CN(C)C)c2C1 [Example 25, (E)-N-[2-(4,6-Dihydroxy-2-methoxy-3-methyl-benzoyl)isoindolin-4-yl]-4-(dimethylamino)-N-methyl-but-2-enamide]",< 100
7,"COc1c(C)c(O)cc(O)c1C(=O)N1Cc2ccc(NC(=O)/C=C/CN(C)C)cc2C1 [Example 26, (E)-N-[2-(4,6-Dihydroxy-2-methoxy-3-methyl-benzoyl)isoindolin-5-yl]-4-(dimethylamino)but-2-enamide]",100 to 1000
8,"COc1c(C)c(O)cc(O)c1C(=O)N1Cc2ccc(N(C)C(=O)/C=C/CN(C)C)cc2C1 [Example 27, (E)-N-[2-(4,6-dihydroxy-2-methoxy-3-methyl-benzoyl)isoindolin-5-yl]-4-(dimethylamino)-N-methyl-but-2-enamide]",100 to 1000
9,"COc1c(C)c(O)cc(O)c1C(=O)N1CCc2ccc(NC(=O)/C=C/CN(C)C)cc2C1 [Example 28, (E)-N-[2-(4,6-dihydroxy-2-methoxy-3-methyl-benzoyl)-3,4-dihydro-1H-isoquinolin-7-yl]-4-(dimethylamino)but-2-enamide]",100 to 1000
10,"COc1c(C)c(O)cc(O)c1C(=O)N1CCc2ccc(N(C)C(=O)/C=C/CN(C)C)cc2C1 [Example 29, (E)-N-[2-(4,6-dihydroxy-2-methoxy-3-methyl-benzoyl)-3,4-dihydro-1H-isoquinolin-7-yl]-4-(dimethylamino)-N-methyl-but-2-enamide]",100 to 1000
11,"Cc1c(O)cc(O)c(C(=O)N2Cc3cccc(N(C)C(=O)/C=C/CN(C)C)c3C2)c1OCC1CC1 [Example 31, (E)-N-[2-[2-(Cyclopropylmethoxy)-4,6-dihydroxy-3-methyl-benzoyl]isoindolin-4-yl]-4-(dimethylamino)-N-methyl-but-2-enamide]",100 to 1000
12,"C=CC(=O)N(C)c1cccc2c1CN(C(=O)c1c(O)cc(O)c(C)c1OC)C2 [Example 32, N-[2-(4,6-dihydroxy-2-methoxy-3-methyl-benzoyl)isoindolin-4-yl]-N-methyl-prop-2-enamide]",100 to 1000
13,"CCOc1c(C)c(O)cc(O)c1C(=O)N1Cc2cccc(N(C)C(=O)/C=C/CN(C)C)c2C1 [Example 33, (E)-4-(Dimethylamino)-N-(2-(2-ethoxy-4,6-dihydroxy-3-methylbenzoyl)isoindolin-4-yl)-N-methylbut-2-enamide]",< 100
14,"COc1c(C)c(O)cc(O)c1C(=O)N1Cc2ccc(OC/C=C/C(=O)N(C)C)cc2C1 [Example 34, (E)-4-[2-(4,6-Dihydroxy-2-methoxy-3-methyl-benzoyl)isoindolin-5-yl]oxy-N,N-dimethyl-but-2-enamide]",100 to 1000
15,"COc1c(C)c(O)cc(O)c1C(=O)N1Cc2cccc(OC/C=C/C(=O)N(C)C)c2C1 [Example 35, (E)-4-((2-(4,6-Dihydroxy-2-methoxy-3-methylbenzoyl)isoindolin-4-yl)oxy)-N,N-dimethylbut-2-enamide]",100 to 1000
16,"C=C(CN1CCOCC1)C(=O)Nc1cccc2c1CN(C(=O)c1c(O)cc(O)c(C)c1OC)C2 [Example 37, N-(2-(4,6-Dihydroxy-2-methoxy-3-methylbenzoyl)isoindolin-4-yl)-2-(morpholinomethyl)acrylamide]",100 to 1000
